Assays:
Format in all cases: functional, Homo sapiens
Conditions in all cases: Homo sapiens, read-out: Cell Viability; for viability at 10 µM: Concentration 10 uM
[1] = test system: Colon cancer organoid; assay: Targeting of F14 CAF-induced therapy resistance in O14 CRC organoid-stroma co-culture. Cell viability is reported with Gefitinib.
[2] = test system: Colon cancer organoid; assay: Targeting of F14 CAF-induced therapy resistance in O23 CRC organoid-stroma co-culture. Cell viability is reported without Gefitinib.
[3] = test system: Colon cancer organoid; assay: Targeting of F14 CAF-induced therapy resistance in O23 CRC organoid-stroma co-culture. Cell viability is reported with Gefitinib.
[4] = test system: Colon cancer organoid; assay: Targeting of F14 CAF-induced therapy resistance in O23 CRC organoid-stroma co-culture. Cell viability is reported with SN-38.
[5] = test system: Colon cancer organoid; assay: Targeting of F14 CAF-induced therapy resistance in O14 CRC organoid-stroma co-culture. Cell viability is reported without Gefitinib.

`Cc1c(Nc2ccc(S(=O)(=O)N3CCN(C)CC3)cc2F)nc2ccc(Nc3cnn(C4CC4)c3)cn2c1=O` showed a viability at 10 µM [1] of 53%, a viability at 10 µM [2] of 118% and a viability at 10 µM [3] of 115%. It also gave a viability at 10 µM [4] of 71.2% and a viability at 10 µM [5] of 68.6%.
`COc1ccccc1-c1cc(N2CCN(C(=O)OC(C)(C)C)CC2)c(N)nn1` gave a viability at 10 µM [1] of 53.4%, a viability at 10 µM [2] of 49.4% and a viability at 10 µM [3] of 37.8%. For the same molecule, the viability at 10 µM [4] was 35.8% and the viability at 10 µM [5] was 101%.
`CN1CCN(c2ccc(-c3cccc(CN4CCOCC4)c3)cc2NC(=O)c2c[nH]c(=O)cc2C(F)(F)F)CC1` was tested, and the viability at 10 µM [1] was 65.8%, the viability at 10 µM [2] was 131% and the viability at 10 µM [3] was 62.5%. It also gave a viability at 10 µM [4] of 102% and a viability at 10 µM [5] of 99.7%.
`CC(=O)Nc1ncc(CN2CCC[C@H](Cc3cc(C)nc(C)c3)C2)s1` [JNJ-65355394] was tested, and the viability at 10 µM [1] was 47.9%, the viability at 10 µM [2] was 103% and the viability at 10 µM [3] was 88.8%. The viability at 10 µM [4] was 44.3% and the viability at 10 µM [5] was 106%.
For `C[C@H](c1ccnc(Nc2nc3ccc(-c4cc(N(C)C)ncn4)cc3[nH]2)c1)N1CCN(C(=O)CC(F)(F)F)CC1` [BAY-985], the viability at 10 µM [1] was 77.2%, the viability at 10 µM [2] was 160% and the viability at 10 µM [3] was 84.3%. It also gave a viability at 10 µM [4] of 80.5% and a viability at 10 µM [5] of 163%.
For `Cc1cc(-n2nc(Cc3cc(F)cc(C(F)(F)F)c3)nc2C)ccc1C(N)=O` [TP-024], the viability at 10 µM [1] was 49.8%, the viability at 10 µM [2] was 153% and the viability at 10 µM [3] was 79%. For the same molecule, the viability at 10 µM [4] was 81% and the viability at 10 µM [5] was 110%.
`CC(C)[C@H](C(=O)Nc1ccc(C(=O)NO)cc1)c1ccccc1` [AR-42] was tested, and the viability at 10 µM [1] was 23.6%, the viability at 10 µM [2] was 210% and the viability at 10 µM [3] was 263%. For the same molecule, the viability at 10 µM [4] was 131% and the viability at 10 µM [5] was 34.5%.
`Cn1cc(CNCC2CCN(c3ncc(C(=O)NO)cn3)CC2)c2ccccc21` [QUISINOSTAT] showed a viability at 10 µM [1] of 0.22%, a viability at 10 µM [2] of 11.7% and a viability at 10 µM [3] of 6.71%. The viability at 10 µM [4] was 1.67% and the viability at 10 µM [5] was 0.685%.
Molecule `c1ccc([C@@H]2C[C@H]2NC2CCNCC2)cc1` has a viability at 10 µM [1] of 58.2%, a viability at 10 µM [2] of 79.5% and a viability at 10 µM [3] of 68%. For the same molecule, the viability at 10 µM [4] was 68.3% and the viability at 10 µM [5] was 114%.
In the case of `CC1=C(C#N)C(c2ccc3c(c2)c(NC(=O)c2ccccc2C)nn3C)C(C#N)=C(C)N1` [BAY-974], the viability at 10 µM [1] is reported as 48.3%, the viability at 10 µM [2] is reported as 103% and the viability at 10 µM [3] is reported as 40.1%. The viability at 10 µM [4] was 57.9% and the viability at 10 µM [5] was 109%.
In the case of `C[C@@H](c1cccc(CN)c1)n1cc(Cl)cc(C(N)=O)c1=N`, the viability at 10 µM [1] is reported as 33.4%, the viability at 10 µM [2] is reported as 172% and the viability at 10 µM [3] is reported as 51%. The viability at 10 µM [4] was 99.7% and the viability at 10 µM [5] was 106%.
Molecule `Cc1c(C(=O)O)cc(-c2ccc(C3CCNCC3)cc2)c2ccc(-c3ccc(C(F)(F)F)cc3)cc12` has a viability at 10 µM [1] of 38.7%, a viability at 10 µM [2] of 143% and a viability at 10 µM [3] of 48.3%. It also gave a viability at 10 µM [4] of 76.8% and a viability at 10 µM [5] of 64.2%.
`Cc1ccc2nc(CNCCCOc3ccccc3)cc(O)c2c1` [UCSF924] was tested, and the viability at 10 µM [1] was 36.6%, the viability at 10 µM [2] was 119% and the viability at 10 µM [3] was 48.9%. For the same molecule, the viability at 10 µM [4] was 63.9% and the viability at 10 µM [5] was 105%.
In the case of `CC(=O)Nc1cccc(-n2c(=O)n(C3CC3)c(=O)c3c(Nc4ccc(I)cc4F)n(C)c(=O)c(C)c32)c1` [TRAMETINIB], the viability at 10 µM [1] is reported as 0.402%, the viability at 10 µM [2] is reported as 1.69% and the viability at 10 µM [3] is reported as 1.61%. For the same molecule, the viability at 10 µM [4] was 1.6% and the viability at 10 µM [5] was 1.6%.
`Cc1c(NC(=O)c2ccc(C(C)(C)C)cc2)cccc1-c1cn(C)c(=O)c(Nc2ccc(C(=O)N3CCOCC3)cc2)n1` was tested, and the viability at 10 µM [1] was 23.8%, the viability at 10 µM [2] was 56.1% and the viability at 10 µM [3] was 54%. The viability at 10 µM [4] was 56.9% and the viability at 10 µM [5] was 82.5%.
`CC(=O)C1=C(C)N(c2cccc(C(F)(F)F)c2)C(=O)N[C@H]1c1ccc(C#N)nc1` [BAY-677] gave a viability at 10 µM [1] of 57.5%, a viability at 10 µM [2] of 93.5% and a viability at 10 µM [3] of 51.7%. It also gave a viability at 10 µM [4] of 75% and a viability at 10 µM [5] of 107%.
`CC(=O)c1c(NS(C)(=O)=O)c2cc(-c3ccc(Cl)cc3)c(-c3ccc(Cl)cc3Cl)nc2n(C)c1=O` [MRL-CB1-NC] gave a viability at 10 µM [1] of 53.2%, a viability at 10 µM [2] of 92.4% and a viability at 10 µM [3] of 48.2%. The viability at 10 µM [4] was 60.4% and the viability at 10 µM [5] was 148%.
In the case of `c1ccc2oc(-c3csc(C4CCN(Cc5nc6ncccc6[nH]5)CC4)n3)cc2c1`, the viability at 10 µM [1] is reported as 37.9%, the viability at 10 µM [2] is reported as 159% and the viability at 10 µM [3] is reported as 66%. It also gave a viability at 10 µM [4] of 60.8% and a viability at 10 µM [5] of 94.5%.
Molecule `O=C(N[C@H]1CCCCC/C=C\C2C[C@@]2(C(=O)O)NC(=O)[C@@H]2C[C@@H](Oc3ccncc3)CN2C1=O)OC1CCCC1` (stereo not given in full) [BI 1675] has a viability at 10 µM [1] of 62%, a viability at 10 µM [2] of 136% and a viability at 10 µM [3] of 51%. The viability at 10 µM [4] was 89.7% and the viability at 10 µM [5] was 102%.
With `COc1cc(C(=O)O)ncc1C#Cc1ccccc1NS(=O)(=O)c1cccc2c(N(C)C)ccnc12` [MSC-0516] the viability at 10 µM [1] was 45.9%, the viability at 10 µM [2] was 131% and the viability at 10 µM [3] was 47.7%. The viability at 10 µM [4] was 79.4% and the viability at 10 µM [5] was 117%.
`CCNC(=O)c1cc2c(N3CCOCC3C)ccnc2[nH]1` (stereo not given) showed a viability at 10 µM [1] of 55.4%, a viability at 10 µM [2] of 156% and a viability at 10 µM [3] of 56.4%. For the same molecule, the viability at 10 µM [4] was 97.3% and the viability at 10 µM [5] was 130%.
In the case of `COCCN1CCC(c2cc(CN(C)C(=O)c3cccc(Oc4ccccc4)c3)ccn2)CC1`, the viability at 10 µM [1] is reported as 65.6%, the viability at 10 µM [2] is reported as 46.6% and the viability at 10 µM [3] is reported as 27.5%. It also gave a viability at 10 µM [4] of 34% and a viability at 10 µM [5] of 67.2%.
With `CCS(=O)(=O)c1cc2cc(C[C@@](O)(CC(C)(C)c3ccc(F)cc3C(N)=O)C(F)(F)F)[nH]c2cn1` [BI 3047] the viability at 1 µM ([1]; Concentration 1 uM) was 44.9%, the viability at 1 µM ([2]; Concentration 1 uM) was 139% and the viability at 1 µM ([3]; Concentration 1 uM) was 46.6%. It also gave a viability at 1 µM ([4]; Concentration 1 uM) of 71% and a viability at 1 µM ([5]; Concentration 1 uM) of 137%.
`Cn1cc(-c2ccc3occ(-c4ccccc4-c4ccccc4)c3n2)cn1` gave a viability at 10 µM [1] of 75.6%, a viability at 10 µM [2] of 153% and a viability at 10 µM [3] of 89.5%. The viability at 10 µM [4] was 63.4% and the viability at 10 µM [5] was 115%.
Molecule `C[C@@]1(Cc2ccc(C#N)cc2)C(=O)N(c2cc(Cl)cc(Cl)c2)c2ncc(C(=O)NC3(c4nc(C5CCC5)no4)CC3)n21` [BI 9446] has a viability at 10 µM [1] of 23%, a viability at 10 µM [2] of 80.2% and a viability at 10 µM [3] of 43%. The viability at 10 µM [4] was 66.3% and the viability at 10 µM [5] was 80.5%.
With `O=c1nc(-c2ccccn2)sc2ccccc12` [BTZO-1] the viability at 10 µM [1] was 69.4%, the viability at 10 µM [2] was 186% and the viability at 10 µM [3] was 83.1%. For the same molecule, the viability at 10 µM [4] was 120% and the viability at 10 µM [5] was 117%.
Work on `CCOc1ccc(S(=O)(=O)Nc2ccc(Cl)cc2C#Cc2cnc(C(=O)O)cc2OC)c2ncccc12` yielded a viability at 10 µM [1] of 42.8%, a viability at 10 µM [2] of 95.3% and a viability at 10 µM [3] of 46.2%. It also gave a viability at 10 µM [4] of 77.6% and a viability at 10 µM [5] of 102%.
`CC(=O)C1=C(C)N(c2cccc(C(F)(F)F)c2)C(=O)N[C@@H]1c1ccc(C#N)nc1` [BAY-678] was tested, and the viability at 10 µM [1] was 41.2%, the viability at 10 µM [2] was 108% and the viability at 10 µM [3] was 61.8%. The viability at 10 µM [4] was 75.6% and the viability at 10 µM [5] was 103%.
For `COc1cc(Nc2ncc3c(n2)-c2ccc(Cl)cc2C(c2c(F)cccc2OC)=NC3)ccc1C(=O)O` [ALISERTIB], the viability at 10 µM [1] was 7.3%, the viability at 10 µM [2] was 32.9% and the viability at 10 µM [3] was 13.7%. The viability at 10 µM [4] was 46.6% and the viability at 10 µM [5] was 16.2%.
